We go through four molecules from paper PMC12560828, “Chemical structure drives developmental toxicity of alkyl-substituted naphthalenes in zebrafish” (Environment international, 2025).

“And” between values parts separate entries of the source, which are not always exact repeats. Equal values may be shown once. Read-outs that look alike come from different tables or passages of the source.

Data set [1] deals with early life stage zebrafish (Danio rerio) embryos. Nature of the data set: Developmental toxicity morphology screen, sealed rotating vial exposure. As to conditions: for morphological effects (BMC50 for any morphological endpoint): 0-50 μM, result in words. Also on record: bmd, MO24 / bmd, MORT / bmd, ANY_ / bmd, AXIS / bmd, CRAN / bmd, EDEM / bmd, LTRK / bmd, MUSC / bmdL, ANY_ / bmdU, ANY_ / bmdL, AXIS / bmdU, AXIS / bmdL, CRAN / bmdU, CRAN / bmdL, EDEM / bmdU, EDEM / bmdL, LTRK / bmdU, LTRK / bmdL, MO24 / bmdU, MO24 / bmdL, MORT / bmdU, MORT: unit not given here. The class given is in vivo. The procedure, abridged:
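Bleached 6 hpf embryos, eight per sealed glass vial in 2 mL EM, were dosed from a 200x DMSO stock and rotated end-over-end overnight at 28 °C, then moved to chemical-free EM at 24 hpf (32 embryos per treatment). Blinded binary scoring at 120 hpf was pooled as "Any effect". BMC50 is on nominal concentrations.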

Data set [2] has as its system zebrafish larvae, 120 hpf. Nature of the data set: Larval photomotor response (LPR) assay after vial exposure. The format is in vivo, Danio rerio. The note with it: LPR. Put shortly:
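Embryos bleached at 6 hpf, exposed in sealed glass vials (8 per vial, DMSO stock at 200x) with rotation overnight at 28 °C, then singulated into chemical-free medium and kept dark at 28 °C. Movement tracked minutes 6–24 at 120 hpf, 6 s bins log-normalized to AUC; LEL per light/dark period from first cycle; nominal water concentrations, dead/malformed larvae excluded.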

For data set [3], the system named is lung tissue. The note with it: compared to naphthalene and monomethylated derivatives, ref Honda et al., 1990, cited from earlier work.
Data set [4] deals with early life stage zebrafish. Also on record: method as in Geier et al., 2018a. As to conditions: 96-well plate format; ref Geier et al., 2018a; cited from earlier work.
Data set [5] can be described thus: Body burden measurement (GC-MS/MS) and concentration uptake ratio, vial exposure. The class given is in vivo, Danio rerio. The note with it: zebrafish (Danio rerio), whole embryos (32 pooled, ethyl acetate extract), other: waterborne exposure of embryos in sealed vials, 20 μM exposure, 32 pooled embryos, 0.5 mL extract, single replicates, read-out: measured concentration in embryo extract. As to the method: (§1) Body burden was measured for exposure to five chemicals at two timepoints: 24 and 48 hpf. […] The exposure concentration was chosen as it was the maximum possible concentration that ensured enough viable animals for collection at 48 hpf and allowed direct comparison of chemical uptake at the same exposure concentration.
(§2) Chemicals were exposed at 20 μM following the exposure procedure detailed in section 1.3, 24 vials per chemical. At 24 hpf, embryos were pooled in groups of 32 embryos (combining embryos from 4 vials) into 1.5 mL polypropylene RINO-safe lock tubes (n = 3 per chemical treatment, n = 3 per control). Tubes were briefly placed on ice to reduce embryo movement (<1 min); the remaining medium was removed; the tube was then flash frozen in liquid nitrogen and stored at −20 °C until extraction. Embryos in the remaining vials were plated as previously described in section 1.3 until collection at 48 hpf following the same procedure as 24 hpf collections (n = 3 per chemical treatment, n = 1 control).
(§3) Tissue extraction was performed as previously reported ([Rude et al., 2025]). Each sample was spiked with 25 μL internal standard in ethyl acetate and 100 μL of 1 mm glass beads (Next Advance, Troy, NY United States) were added to the RINO-safe lock tubes containing thawed tissue samples and left on ice for 10 min 250 mg of Na2SO4 and 200 μL of ethyl acetate were added to each tube and vortexed. Tubes were homogenized at speed 8 for 6 min in a Bullet Blender (Next Advance, Troy, NY, United States). 300 μL of ethyl acetate was added to each tube and the homogenization step was repeated until no pieces of non-homogenized fish tissue remained. Samples were then centrifuged for 10 min at 4 °C, 1600g. Sample supernatant (0.5 mL) was collected into amber vials and stored at 4 °C until chemical analysis.
(§4) Samples were analyzed for quantitation and identification of 161 PAHs. The method was performed with an Agilent 7890 gas chromatograph (GC), with a 7000C triple quadrupole mass spectrometer (MS/MS) using an Agilent J&W PAH select (30 m × 250 μm × 0.15 μm GC column). Calibration for each analyte utilized at least a 4-point (range: 4–7, median 6 points, n = 161) curve with R^2 ≥ 0.99. Specific instrument conditions were modified from [Anderson et al. (2015)] and are detailed in Table S3. GC–MS/MS data was analyzed using MassHunter Quantitative Analysis v.B.06.00 SP1 build 6.0.388.1 software (Agilent Corp. Wilmington,DE) ([Anderson et al., 2015]). Dynamic muti-reaction monitoring mode was used during analyses, and all PAHs were identified using analytical standards obtained from multiple sources (Table S1). Collison energies were optimized for each individual unsubstituted PAH, alkylation series (C1, C2, etc.), and when possible, specific alkylation group (i.e. methyl, ethyl, etc.).
(§5) Body burden concentrations based on average embryo wet weight at each timepoint were determined by the equation below. Total measured chemical was calculated from ng/mL concentrations times sample volume (0.5 mL). Bodyburdennmol/mgbw=total measured chemicalnmol/number of fish32×average body weightmg
(§6) Average body weights at 24 hpf and 48 hpf were assumed to be 0.31 mg and 0.26 mg, respectively as determined previously ([Rericha et al., 2024]). Statistical analysis to compare time points within chemicals was performed using a two-sided Student’s t-test (p-value ≤ 0.05). An ANOVA with a follow-up Dunn’s test was used to compare body burden between chemicals at 24 hpf (p-value ≤ 0.05). Body burden concentrations at 24 hpf were compared to the estimated percent effect of each measured chemical at the exposure concentration used for body burden analysis (20 μM). These estimates were made using the fitted concentration-response curves previously described in section 2.3.2.2.
(§7) Concentration uptake ratios between vial exposures and 96-well plate exposures were compared using a two-sided Student’s t-test, p-values ≤ 0.05 were considered significant. […]

The subject of data set [6] is zebrafish embryos. The description is as above. The class given is in vivo, Danio rerio. As to conditions: for measured concentration in embryo extract: 20 μM exposure, 32 pooled embryos, 0.5 mL extract, single replicates; for nmol/embryo per nmol available / nmol/embryo: Current study, vial, 20 μM; for nmol/embryo: single chemical. As to the method: as §1, §2, §3, §4, §5, §6, §7

For data set [7], the system named is zebrafish embryos. As to conditions: 96-well, cited from earlier work.
The mark [8] stands for this setting: period dark, round 1, conc 3.125.
The mark [9] stands for this setting: period dark, round 1, conc 6.25.
Setting [10] is: period dark, round 1, conc 12.5.
[11] abbreviates: period light, round 1, conc 3.125.
Setting [12] is: period light, round 1, conc 6.25.
The mark [13] stands for this setting: period light, round 1, conc 12.5.
[14] abbreviates: 24 hpf, 2.6 μM, mixture, ref Rude et al 2025.
The mark [15] stands for this setting: 48 hpf, 2.6 μM, mixture, ref Rude et al 2025.

Regarding `CC(C)c1ccc2cc(C(C)C)ccc2c1` [2,6-diisopropylnaphthalene], the “morphological effects (BMC50 for any morphological endpoint)” value in data set [1] is “lack of activity”. In addition, the fold_change is -0.1214 in data set [2] (setting [8]); 0.07359 in data set [2] (setting [9]); -0.001373 in data set [2] (setting [10]); -0.09025 in data set [2] (period dark, round 1, conc 25); -0.07941 in data set [2] (period dark, round 1, conc 50); -0.5097 in data set [2] (setting [11]). Moreover, the fold_change was -1.08 in data set [2] (setting [12]); -0.05494 in data set [2] (setting [13]); -0.2588 in data set [2] (period light, round 1, conc 25); -0.8125 in data set [2] (period light, round 1, conc 50). Moreover, the “toxicity / lung tissue damage in mice” value in data set [3] was “minimal damage to lung tissue”; in data set [3] (listed as 2,6-diidopropylnaphthalene) it was “minimally active”.
In the case of `Cc1ccc2cc(C)ccc2c1` [2,6-dimethylnaphthalene], the fold_change in data set [2] (setting [8]) is -0.2769; in data set [2] (setting [9]), -0.4387; in data set [2] (setting [10]), -0.1031; in data set [2] (period dark, round 1, conc 25), -0.6771; in data set [2] (period dark, round 1, conc 50), -0.3061; in data set [2] (setting [11]), -0.2359. Besides, the fold_change in data set [2] (setting [12]) was -0.1972; in data set [2] (setting [13]) it was 0.2009; in data set [2] (period light, round 1, conc 25), -0.2222; in data set [2] (period light, round 1, conc 50) it was -0.2493. For the same molecule, in data set [4], the LPR effects entry is “all but 2,6-dimethylnaphthalene caused LPR effects”.
With `CC(C)c1ccc2ccccc2c1` [2-isopropylnaphthalene], the “BMC50 MO24 (mortality at 24 hpf)” value in data set [1] (Fig. 2, nominal concentration) was 29.9 µM. Further, the “BMC50 MORT (mortality at 120 hpf)” value in data set [1] (Fig. 2, nominal concentration) came out at 25.2 µM. In data set [1] (Fig. 2 heatmap, nominal concentration, exposure 6-24 hpf in vials, summary of all endpoints), the “BMC50 Any effect” value is 19.8 µM. Moreover, the “any effect BMD50” value in data set [1] (SI-T5) stood at 19.85 µM. Besides, in data set [1] (endpoint MO24, benchmark dose), the “bmd, MO24” value is 29.9264. For the same molecule, the “bmdL, MO24” value in data set [1] (endpoint MO24, lower limit of benchmark dose) is 27.6751. Further, the “bmdU, MO24” value in data set [1] (endpoint MO24, upper limit of benchmark dose) was 32.9501. Besides, the “bmd, MORT” value in data set [1] (endpoint MORT, benchmark dose) is recorded as 25.1507. Further, the “bmdL, MORT” value in data set [1] (endpoint MORT, lower limit of benchmark dose) is listed as 24.3232. Moreover, the “bmdU, MORT” value in data set [1] (endpoint MORT, upper limit of benchmark dose) is listed as 26.3204. Moreover, the “bmd, ANY_” value in data set [1] (morphology endpoint ANY_, benchmark dose) is 19.8483. Moreover, the “bmdL, ANY_” value in data set [1] (morphology endpoint ANY_, lower limit of benchmark dose) is listed as 18.4734. In data set [1] (morphology endpoint ANY_, upper limit of benchmark dose), the “bmdU, ANY_” value turned out to be 21.3892. The fold_change is -0.04413 in data set [2] (setting [8]); -0.6849 in data set [2] (setting [9]); -1.554 in data set [2] (setting [10]); -0.9379 in data set [2] (period dark, round 2, conc 12.8); -1.368 in data set [2] (period dark, round 2, conc 16); -1.899 in data set [2] (period dark, round 2, conc 20). For the same molecule, the fold_change in data set [2] (setting [11]) was 0.2872; in data set [2] (setting [12]), 0.3099; in data set [2] (setting [13]), 1.277; in data set [2] (period light, round 2, conc 12.8), -0.1327; in data set [2] (period light, round 2, conc 16), -0.2493; in data set [2] (period light, round 2, conc 20), 0.1913. In addition, the “toxicity / lung tissue damage in mice” value in data set [3] is reported as “minimally active”.
`c1ccc2ccccc2c1` [naphthalene]: in data set [1], the “morphological effects (BMC50 for any morphological endpoint)” value is recorded as “no morphological BMC50 values”. In data set [5] (24 hpf), the concentration at 24 hpf, 20 μM amounted to 6.5 µg/mL. The concentration at 48 hpf, 20 μM in data set [5] (48 hpf) worked out at 0.0756 µg/mL. In addition, the “measured concentration in embryo extract” value in data set [6] (24 hpf) is 4400 ng/mL and 5130 ng/mL; in data set [6] (48 hpf), 66.9 ng/mL and 62 ng/mL. For the same molecule, the “nmol/embryo per nmol available” value in data set [6] (24 hpf) is 0.1585 and 0.1073 and 0.1251; in data set [6] (48 hpf), 0.001843 and 0.001631 and 0.001512; in data set [7] (setting [14]), 0.00446 and 0.00471 and 0.004751; in data set [7] (setting [15]), 0.003022 and 0.003538 and 0.003218 and 0.003151; in data set [7] (48 hpf, 5.39 μM, ref Geier et al 2018), 0.001435 and 0.001377 and 0.001464; in data set [7] (48 hpf, 11.6 μM, ref Geier et al 2018) it was 0.001547 and 0.001505 and 0.001421. In data set [7] (48 hpf, 25 μM, ref Geier et al 2018), the “nmol/embryo per nmol available” value was 0.0008933 and 0.001034 and 0.001006. Moreover, the nmol/embryo was 0.7924 nmol/embryo and 0.5364 nmol/embryo and 0.6254 nmol/embryo in data set [6] (24 hpf); 0.009216 nmol/embryo and 0.008156 nmol/embryo and 0.007558 nmol/embryo in data set [6] (48 hpf); 0.001159 nmol/embryo and 0.001224 nmol/embryo and 0.001235 nmol/embryo in data set [7] (setting [14]); 0.0007856 nmol/embryo and 0.00092 nmol/embryo and 0.0008366 nmol/embryo and 0.0008192 nmol/embryo in data set [7] (setting [15]); 0.0007734 nmol/embryo and 0.0007422 nmol/embryo and 0.000789 nmol/embryo in data set [7] (48 hpf, 5.39 μM, single chemical, ref Geier et al 2018); 0.001794 nmol/embryo and 0.001746 nmol/embryo and 0.001648 nmol/embryo in data set [7] (48 hpf, 11.6 μM, single chemical, ref Geier et al 2018). Besides, the nmol/embryo in data set [7] (48 hpf, 25 μM, single chemical, ref Geier et al 2018) was 0.002233 nmol/embryo and 0.002584 nmol/embryo and 0.002516 nmol/embryo. For the same molecule, the “mean nmol/embryo per nmol available” value in data set [7] (setting [14]) is 0.004595.
